Assay results: patent US9067924B2, “1,4 thiazepines/sulfones as BACE1 and/or BACE2 inhibitors” (HOFFMANN-LA ROCHE INC., priority 2011, dated 2015)

Tests used:
BACE1 = BACE1 (Homo sapiens (Human), UniProt P56817); assay: Cellular Aβ-lowering assay; format: cell-based; details: HEK293 cells expressing human APP695, Aβ40 in supernatant by ELISA
Procedure: Cellular Aβ-Lowering Assay:
Human HEK293 cells which are stably transfected with a vector expressing a cDNA of the human APP wt gene (APP695) were used to assess the potency of the compounds in a cellular assay. The cells were seeded in 96-well microtiter plates in cell culture medium (Iscove, plus 10% (v/v) fetal bovine serum, glutamine, penicillin/streptomycin) to about 80% confluence and the compounds were added at a 10× concentration in 1/10 volume of medium without FCS containing 8% DMSO (final concentration of DMSO was kept at 0.8% v/v). After 18-20 hrs incubation at 37° C. and 5% CO2 in a humidified incubator the culture supernatant was harvested for the determination of Aβ40 concentrations. 96 well ELISA plates (e.g., Nunc MaxiSorb) were coated with monoclonal antibody which specifically recognize the C-terminal end of Aβ40 (Brockhaus et al., NeuroReport 9, 1481-1486; 1998). After blocking of non-specific binding sites with e.g. 1% BSA and washing, the culture supernatants were added in suitable dilutions together with a horseradish peroxidase-coupled Aβ detection antibody (e.g., antibody 4G8, Senetek, Maryland Heights, Mo.) and incubated for 5 to 7 hrs. Subsequently the wells of the microtiter plate were washed extensively with Tris-buffered saline containing 0.05% Tween 20 and the assay was developed with tetramethylbenzidine/H2O2 in citric acid buffer. After stopping the reaction with one volume 1 N H2SO4 the reaction was measured in an ELISA reader at 450 nm wavelength. The concentrations of Aβ in the culture supernatants were calculated from a standard curve obtained with known amounts of pure Aβ peptide.

BACE2 = BACE2 (Rattus norvegicus (Rat), UniProt Q6IE75); assay: Assay for BACE inhibition by measuring cellular TMEM27 cleavage; format: cell-based; details: INS-TMEM27 (INS1e-derived) cells, shed hTMEM27 by ELISA
Chain of BACE2 (Q6IE75 63-514): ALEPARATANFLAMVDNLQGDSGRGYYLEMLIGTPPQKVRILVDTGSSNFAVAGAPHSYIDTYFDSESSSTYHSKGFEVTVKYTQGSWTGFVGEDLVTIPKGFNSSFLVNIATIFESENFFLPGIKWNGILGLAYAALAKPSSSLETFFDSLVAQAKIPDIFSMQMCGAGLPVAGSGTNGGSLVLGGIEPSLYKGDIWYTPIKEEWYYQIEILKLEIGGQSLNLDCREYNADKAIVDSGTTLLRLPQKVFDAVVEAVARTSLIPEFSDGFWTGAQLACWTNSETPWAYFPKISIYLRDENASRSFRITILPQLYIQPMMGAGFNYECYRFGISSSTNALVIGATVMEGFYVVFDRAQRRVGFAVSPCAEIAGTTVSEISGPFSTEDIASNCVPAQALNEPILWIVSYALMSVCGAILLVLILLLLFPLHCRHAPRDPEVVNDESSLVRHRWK
Excerpt: Assay for BACE Inhibition by Measuring Cellular TMEM27 Cleavage:
The assay uses the principle of inhibition of human TMEM27 cleavage by endogenous cellular BACE2 in the Ins1e rat cell line and shedding from the cell surface into the culture medium, followed by detection in an ELISA assay Inhibition of BACE2 prevents the cleavage and shedding in a dose-dependent manner.
The stable cell line “INS-TMEM27” represents an INS1e-derived cell line with inducible expression (using the TetOn system) of full-length hTMEM27 in a doxycycline-dependent manner. The cells are cultured throughout the experiment in RPMI1640+Glutamax (Invitrogen) Penicillin/Streptomycin, 10% Fetal bovine serum, […], […], 100 micrograms/ml G418 and 100 microgram/ml hygromycin and are grown inadherent culture at 37° C. in a standard CO2 cell culture incubator.
INS-TMEM27 cells are seeded in 96-well plates. After 2 days in culture, BACE2 inhibitor is added in a range of concentrations as required by the assay and after a further two hours, doxycycline is added to a final concentration of 500 ng/ml. The cells are incubated for a further 46 hours and the supernatant harvested for detection of shed TMEM27.
An ELISA assay (using a pair of mouse anti-human-TMEM27 antibodies, raised against the extracellular domain of TMEM27) is used for detection of TMEM27 in the culture medium. An EC50 for BACE2 inhibition is calculated using the ELISA readout for each inhibitor concentration with standard curve-fitting software such as XLFit for the Excel spreadsheet program.

Chain of BACE1 (P56817 46-501): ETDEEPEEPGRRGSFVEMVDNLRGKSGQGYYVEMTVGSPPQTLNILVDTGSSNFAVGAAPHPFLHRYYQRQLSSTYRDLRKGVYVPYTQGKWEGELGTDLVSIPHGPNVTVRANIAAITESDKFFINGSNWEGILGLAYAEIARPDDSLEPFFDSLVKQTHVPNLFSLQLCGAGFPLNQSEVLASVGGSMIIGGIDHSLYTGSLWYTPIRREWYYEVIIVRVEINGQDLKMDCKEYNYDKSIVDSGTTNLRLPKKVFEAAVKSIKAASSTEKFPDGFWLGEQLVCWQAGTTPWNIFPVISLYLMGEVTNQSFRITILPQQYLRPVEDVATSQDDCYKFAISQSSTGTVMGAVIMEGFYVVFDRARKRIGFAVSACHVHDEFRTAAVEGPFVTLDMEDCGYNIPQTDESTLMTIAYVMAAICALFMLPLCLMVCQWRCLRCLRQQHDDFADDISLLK

Row | IC50 (BACE1) [nM] | IC50 (BACE2) [nM] | Compound
1 | 170 | 21 | CC1SCC[C@@](C)(c2cc(NC(=O)c3ccc(F)cn3)ccc2F)N=C1N (stereo in doubt) [Example 5, 5-Fluoro-pyridine-2-carboxylic acid [3-((S)-3-amino-2,5-dimethyl-2,5,6,7-tetrahydro-[1,4]thiazepin-5-yl)-4-fluoro-phenyl]-amide]
2 | 140 | 9 | CC1SCC[C@@](C)(c2cc(NC(=O)c3ccc(Cl)cn3)ccc2F)N=C1N (stereo in doubt) [Example 6, 5-Chloro-pyridine-2-carboxylic acid [3-((S)-3-amino-2,5-dimethyl-2,5,6,7-tetrahydro-[1,4]thiazepin-5-yl)-4-fluoro-phenyl]-amide]
3 | 6.3 | 167 | C[C@@]1(c2cc(NC(=O)c3ccc(Cl)cn3)ccc2F)CCSCC(N)=N1 [Example 1, 5-Chloro-pyridine-2-carboxylic acid [3-((S)-3-amino-5-methyl-2,5,6,7-tetrahydro-[1,4]thiazepin-5-yl)-4-fluoro-phenyl]-amide]
4 | 16 | 79 | C[C@@]1(c2cc(NC(=O)c3ccc(F)cn3)ccc2F)CCSCC(N)=N1 [Example 2, 5-Fluoro-pyridine-2-carboxylic acid [3-((S)-3-amino-5-methyl-2,5,6,7-tetrahydro-[1,4]thiazepin-5-yl)-4-fluoro-phenyl]-amide]
5 | 3 | 5 | C[C@@]1(c2cc(NC(=O)c3ccc(Cl)cn3)ccc2F)CCS(=O)(=O)CC(N)=N1 [Example 3, 5-Chloro-pyridine-2-carboxylic acid [3-((S)-3-amino-5-methyl-1,1-dioxo-2,5,6,7-tetrahydro-1H-1λ^6-[1,4]thiazepin-5-yl)-4-fluoro-phenyl]-amide]
6 | 30 | 16 | CC1C(N)=N[C@](C)(c2cc(NC(=O)c3ccc(Cl)cn3)ccc2F)CCS1(=O)=O (stereo partly drawn) [Example 8, 5-Chloro-pyridine-2-carboxylic acid [3-((S)-3-amino-2,5-dimethyl-1,1-dioxo-2,5,6,7-tetrahydro-4H-1λ^6-[1,4]thiazepin-5-yl)-4-fluoro-phenyl]-amide]

The remaining lines, values behind:

Row | Compound | IC50 (BACE1) [nM] | IC50 (BACE2) [nM]
7 | C[C@]1(c2cc(NC(=O)c3ccc(C#N)cn3)ccc2F)N=C(N)CS(=O)(=O)[C@H]2COC[C@@H]21 (relative stereo) [Example 14, 5-Cyano-pyridine-2-carboxylic acid [3-((3aR,8S,8aS)-rel-6-amino-8-methyl-4,4-dioxo-3,3a,4,5,8,8a-hexahydro-1H-2-oxa-4λ^6-thia-7-aza-azulen-8-yl)-4-fluoro-phenyl]-amide] | 78 | –
8 | CC1C(N)=N[C@](C)(c2cc(NC(=O)c3ccc(F)cn3)ccc2F)CCS1(=O)=O (stereo in doubt) [Example 7, 5-Fluoro-pyridine-2-carboxylic acid [3-((S)-3-amino-2,5-dimethyl-1,1-dioxo-2,5,6,7-tetrahydro-1H-1λ^6-[1,4]thiazepin-5-yl)-4-fluoro-phenyl]-amide] | 4 | 2
9 | CC1C(N)=N[C@](C)(c2cc(NC(=O)c3[nH]ncc3Cl)ccc2F)CCS1(=O)=O (stereo in doubt) [Example 9, 4-Chloro-2H-pyrazole-3-carboxylic acid [3-((S)-3-amino-2,5-dimethyl-1,1-dioxo-2,5,6,7-tetrahydro-1H-1λ^6-[1,4]thiazepin-5-yl)-4-fluoro-phenyl]-amide] | 300 | 858
10 | C[C@@]1(c2cc(NC(=O)c3ccc(F)cn3)ccc2F)CCS(=O)(=O)CC(N)=N1 [Example 4, 5-Fluoro-pyridine-2-carboxylic acid [3-((S)-3-amino-5-methyl-1,1-dioxo-2,5,6,7-tetrahydro-1H-1λ^6-[1,4]thiazepin-5-yl)-4-fluoro-phenyl]amide] | 20 | 4
11 | CC1(C)C(N)=N[C@](C)(c2cc(NC(=O)c3ccc(F)cn3)ccc2F)CCS1(=O)=O [Example 10, 5-Fluoro-pyridine-2-carboxylic acid [3-((S)-3-amino-2,2,5-trimethyl-1,1-dioxo-2,5,6,7-tetrahydro-1H-1λ^6-[1,4]thiazepin-5-yl)-4-fluoro-phenyl]-amide] | 62 | 181
12 | CC1(C)C(N)=N[C@](C)(c2cc(NC(=O)c3[nH]ncc3Cl)ccc2F)CCS1(=O)=O [Example 11, 4-Chloro-2H-pyrazole-3-carboxylic acid [3-((S)-3-amino-2,2,5-trimethyl-1,1-dioxo-2,5,6,7-tetrahydro-1H-1λ^6-[1,4]thiazepin-5-yl)-4-fluoro-phenyl]-amide] | 2290 | –
13 | CC1(C)C(N)=N[C@](C)(c2cc(NC(=O)c3ccc(C#N)cn3)ccc2F)CCS1(=O)=O [Example 12, 5-Cyano-pyridine-2-carboxylic acid [3-((S)-3-amino-2,2,5-trimethyl-1,1-dioxo-2,5,6,7-tetrahydro-1H-1λ^6-[1,4]thiazepin-5-yl)-4-fluoro-phenyl]-amide] | 53 | –
14 | N#Cc1ccc(C(=O)Nc2ccc(F)c([C@]3(C(F)F)CCS(=O)(=O)CC(N)=N3)c2)nc1 [Example 13, 5-Cyano-pyridine-2-carboxylic acid [3-((S)-3-amino-5-difluoromethyl-1,1-dioxo-2,5,6,7-tetrahydro-1H-1λ^6-[1,4]thiazepin-5-yl)-4-fluoro-phenyl]-amide] | 260 | –
